From PubChem BioAssay AID1918949 (Molecular Pharmacology Branch, DTP, NCI, 2023)
pIC50: −log10 of the molar value. Where “and” joins values, the source holds several entries; their conditions need not be identical. Equal values may be shown once.

Test system: K24384-001-R-PDC complex spheroid viability
Test: Anticancer human tumor K24384-001-R-PDC patient-derived pancreatic adenocarcinoma cell line growth inhibition
Conditions: for viability, T/C: stronger effect = lower value
Excerpt: Multicellular complex tumor spheroid response to LSD1 Inhibitor Iadademstat in combination with a variety of drugs and investigational agents in selected tumor cell lines
The current study was undertaken to assess response to LSD1 inhibitors in combination with standard-of-care drugs and investigational agents in solid tumor complex spheroid models as well as in the K-562 leukemia. Complex spheroids include a stromal component modeled by human endothelial cells (HUVEC) and fibroblasts modeled by human mesenchymal stem cells (MSCs). The concentration ranges selected for each drug and investigational agent were based upon clinically achievable concentrations if the clinical Cmax of the agent was known.
Compounds. The drugs and investigational agents used in this study are listed on Table 1. All of the agents used, including staurosporine (NSC755774) and gemcitabine (NSC613327), were obtained from the Developmental Therapeutics Program, NCI. FDA-approved anticancer drugs are available from the NCI at http://dtp.nci.nih.gov/branches/dscb/oncology_drugset_explanation.html. Drugs and investigational agents were >95% pure by proton nuclear magnetic resonance (NMR) and liquid chromatography/mass spectrometry (LC/MS). Stock solutions were prepared at 400x in DMSO, stored at -70 degrees C, and diluted in fresh medium prior to their use. The final concentration of DMSO in cell culture wells never exceeded 0.25% (v/v). The FDA-approved anticancer drug set is available from the Developmental Therapeutics Program at https://dtp.cancer.gov/organization/dscb/obtaining/available_plates.htm. All drugs and investigational agents were tested over a range starting from a high concentration at or near the clinical Cmax and decreasing in half-log increments. If the clinical Cmax for an agent had not been determined, the highest concentration tested was 10 microM.
Cell Lines. The patient-derived cancer cell (PDC) lines: 292921-168-R-J2-PDC, K24384-001-R-PDC, and 521955-158-R2-J5-PDC pancreatic carcinomas, 556581-035-R-J1 ovarian carcinoma, 324938-238-R-J1-PDC, 855422-203-R-J1-PDC and 883617-216-R-J1-PDC urothelial bladder carcinomas, 743489-274-T-PDC renal cell carcinoma, 138582-R-J1 Merkel cell tumor, K60290-347-R-J1 and K57222-313-R-J1-PDC glioblastomas, 653999-131-R-J2-PDC, LG0703-F948-PDC, and 349418-098-R-PDC non-small cell lung carcinomas, 885512-296-R-J2-PDC, 171881-019-R-J1-PDC breast carcinomas and 186277-243-T-J2-PDC and 233499-124-R-J2-PDC colon carcinomas were obtained from the NCI Patient-Derived Models Repository (PDMR, https://pdmr.cancer.gov). The established cell lines NCI/ADR-RES (RRID:CVCL_14520 and OVCAR-5 (RRID:CVCL_1628) ovarian carcinomas, 786-O (RRID:CVCL_1051) and A498 (RRID:CVCL_A498) renal cell carcinoma, NCI-H211 (ATCC, cat. CRL-5824; RRID:CVCL_1529), NCI-H196 (ATCC, cat. CRL-5823, RRID:CVCL_1509), SW 1271 (ATCC, cat. CRL-2177, RRID:CVCL_1716) and NCI-H1876 (ATCC, cat. CRL-5902, RRID:CVCL_1503) small cell lung carcinomas, MDA-MB-231 (RRID:CVCL_0062) and MDA-MB-468 (RRID:CVCL_0419)breast carcinomas (10-12). Pooled donor human umbilical vein endothelial cells (HUVEC, Lonza, cat. CC-2519) and human mesenchymal stem cells (hMSC, Lonza, cat. PT-2501) were purchased from Lonza (Walkersville, MD).
Cell Culture. All cells were maintained in an incubator at 37 degrees C and 5% CO2 with 95% humidity. The PDC lines were cultured according to standard operating procedures established by the NCI PDMR (https://pdmr.cancer.gov). Briefly all PDCs were thawed and cultured in Matrigel-coated flasks prepared with a working solution of 1X Ham's F-12 nutrient mix, without supplementation (Invitrogen, Waltham, MA, cat. 11765054), 100 U/mL penicillin-streptomycin (Invitrogen, cat. 15140122), and 2.5% Matrigel (Corning Inc., Corning, NY, cat. 354248) for the first three passages. […]

[1] = curve of first compound, second compound 0.1 µM
[2] = curve of first compound, second compound 0.316 µM
[3] = curve of first compound, second compound 1 µM
[4] = curve of first compound, second compound 3.16 µM
[5] = curve of first compound, second compound 10 µM
[6] = second compound 0.1 µM, first compound 0.00316 µM
[7] = second compound 0.1 µM, first compound 0.01 µM
[8] = second compound 0.1 µM, first compound 0.0316 µM
[9] = second compound 0.1 µM, first compound 0.1 µM
[10] = second compound 0.316 µM, first compound 0.00316 µM
[11] = second compound 0.316 µM, first compound 0.01 µM
[12] = second compound 0.316 µM, first compound 0.0316 µM
[13] = second compound 0.316 µM, first compound 0.1 µM
[14] = second compound 1 µM, first compound 0.00316 µM
[15] = second compound 1 µM, first compound 0.01 µM
[16] = second compound 1 µM, first compound 0.0316 µM
[17] = second compound 1 µM, first compound 0.1 µM
[18] = second compound 3.16 µM, first compound 0.00316 µM
[19] = second compound 3.16 µM, first compound 0.01 µM
[20] = second compound 3.16 µM, first compound 0.0316 µM
[21] = second compound 3.16 µM, first compound 0.1 µM
[22] = second compound 10 µM, first compound 0.00316 µM
[23] = second compound 10 µM, first compound 0.01 µM
[24] = second compound 10 µM, first compound 0.0316 µM
[25] = second compound 10 µM, first compound 0.1 µM
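Further: spheroids exposed to agents for seven days before luminescence viability reading.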
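Wherever viability, T/C is given: 100% = DMSO vehicle control viability.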

O=C(C=Cn1cnc(-c2cc(C(F)(F)F)cc(C(F)(F)F)c2)n1)NNc1cnccn1 + NC1CCC(NC2CC2c2ccccc2)CC1
pIC50 [1]: 7.53 | pIC50 [2]: 7.33 | pIC50 [3]: 7.50 | pIC50 [4]: 7.45 | pIC50 [5]: 7.54 | viability, T/C [6]: 72.7% | viability, T/C [7]: 62.3% | viability, T/C [8]: 49.8% | viability, T/C [9]: 36.2% | viability, T/C (second compound 0.1 µM, first compound 0.316 µM): 30.7% | viability, T/C (second compound 0.1 µM, first compound 1 µM): 23.9% | viability, T/C [10]: 75% | viability, T/C [11]: 69.8% | viability, T/C [12]: 57.9% | viability, T/C [13]: 34.6% | viability, T/C (second compound 0.316 µM, first compound 0.316 µM): 34% | viability, T/C (second compound 0.316 µM, first compound 1 µM): 21% | viability, T/C [14]: 67% | viability, T/C [15]: 65.1% | viability, T/C [16]: 49.8% | viability, T/C [17]: 31.3% | viability, T/C (second compound 1 µM, first compound 0.316 µM): 30.3% | viability, T/C (second compound 1 µM, first compound 1 µM): 24.3% | viability, T/C [18]: 64.9% | viability, T/C [19]: 61.2% | viability, T/C [20]: 53% | viability, T/C [21]: 31.8% | viability, T/C (second compound 3.16 µM, first compound 0.316 µM): 30.3% | viability, T/C (second compound 3.16 µM, first compound 1 µM): 20.5% | viability, T/C [22]: 72.7% | viability, T/C [23]: 70.5% | viability, T/C [24]: 47.2% | viability, T/C [25]: 31.5% | viability, T/C (second compound 10 µM, first compound 0.316 µM): 30.8% | viability, T/C (second compound 10 µM, first compound 1 µM): 21.6%

Nc1ccn(C2OC(CO)C(O)C2(F)F)c(=O)n1 (centres undefined)
viability, T/C (compound 0.000949 µM): 97.6% | viability, T/C (compound 0.003 µM): 89% and 86.8% | viability, T/C (compound 0.00949 µM): 73% and 73.2% | viability, T/C (compound 0.03 µM): 60.7% and 53.4% | viability, T/C (compound 0.0949 µM): 44% and 42.3% | viability, T/C (compound 0.3 µM): 33.9% and 28.2% | pIC50 (curve of compound): 7.20 and 7.34

Cn1ncnc1C1c2n[nH]c(=O)c3cc(F)cc(c23)NC1c1ccc(F)cc1 (centres undefined) + NC1CC1c1ccc(-c2cccc(O)c2)cc1
pIC50 [1]: < 7.00 | pIC50 [2]: < 7.00 | pIC50 [3]: < 7.00 | pIC50 [4]: < 7.00 | pIC50 [5]: < 7.00 | viability, T/C (second compound 0.1 µM, first compound 0.000316 µM): 92.8% | viability, T/C (second compound 0.1 µM, first compound 0.001 µM): 121% | viability, T/C [6]: 104% | viability, T/C [7]: 88.4% | viability, T/C [8]: 77.6% | viability, T/C [9]: 77.8% | viability, T/C (second compound 0.316 µM, first compound 0.000316 µM): 101% | viability, T/C (second compound 0.316 µM, first compound 0.001 µM): 105% | viability, T/C [10]: 84.4% | viability, T/C [11]: 85.8% | viability, T/C [12]: 93.8% | viability, T/C [13]: 73.3% | viability, T/C (second compound 1 µM, first compound 0.000316 µM): 108% | viability, T/C (second compound 1 µM, first compound 0.001 µM): 96.7% | viability, T/C [14]: 84.5% | viability, T/C [15]: 94.2% | viability, T/C [16]: 78.3% | viability, T/C [17]: 102% | viability, T/C (second compound 3.16 µM, first compound 0.000316 µM): 91.7% | viability, T/C (second compound 3.16 µM, first compound 0.001 µM): 96.9% | viability, T/C [18]: 93.6% | viability, T/C [19]: 101% | viability, T/C [20]: 102% | viability, T/C [21]: 75.8% | viability, T/C (second compound 10 µM, first compound 0.000316 µM): 108% | viability, T/C (second compound 10 µM, first compound 0.001 µM): 111% | viability, T/C [22]: 126% | viability, T/C [23]: 94.9% | viability, T/C [24]: 96% | viability, T/C [25]: 86.5%

O=C(c1cc(Cc2n[nH]c(=O)c3ccccc23)ccc1F)N1CCN(C(=O)C2CC2)CC1
viability, T/C (compound 0.0316 µM): 104% and 94.8% | viability, T/C (compound 0.1 µM): 97.3% and 91.9% | viability, T/C (compound 0.316 µM): 91% and 88.9% | viability, T/C (compound 1 µM): 85.5% and 81.4% | viability, T/C (compound 3.16 µM): 82.9% and 67.7% | viability, T/C (compound 10 µM): 84.4% and 70.1% | pIC50 (curve of compound): < 5.00
